Paper PMC6606611, “A comparative analysis of secreted protein disulfide isomerases from the tropical co-endemic parasites Schistosoma mansoni and Leishmania major” (Scientific Reports, 2019)

How the values were obtained:
[1] = target: T1, LmPDI (Leishmania major, UniProt Q8I8E1); test: fluorimetric di-eosin-GSSG disulfide reductase assay, […] protein; type: biochemical
T1 construct: gene pdi; recombinant, N-terminal cleavable His-FLAG tag

[2] = target: T2, HsPDIA3/ERp57 (Homo sapiens, UniProt P30101); test: biochemical
T2 construct: gene PDIA3
T2 sequence (P30101 25-505): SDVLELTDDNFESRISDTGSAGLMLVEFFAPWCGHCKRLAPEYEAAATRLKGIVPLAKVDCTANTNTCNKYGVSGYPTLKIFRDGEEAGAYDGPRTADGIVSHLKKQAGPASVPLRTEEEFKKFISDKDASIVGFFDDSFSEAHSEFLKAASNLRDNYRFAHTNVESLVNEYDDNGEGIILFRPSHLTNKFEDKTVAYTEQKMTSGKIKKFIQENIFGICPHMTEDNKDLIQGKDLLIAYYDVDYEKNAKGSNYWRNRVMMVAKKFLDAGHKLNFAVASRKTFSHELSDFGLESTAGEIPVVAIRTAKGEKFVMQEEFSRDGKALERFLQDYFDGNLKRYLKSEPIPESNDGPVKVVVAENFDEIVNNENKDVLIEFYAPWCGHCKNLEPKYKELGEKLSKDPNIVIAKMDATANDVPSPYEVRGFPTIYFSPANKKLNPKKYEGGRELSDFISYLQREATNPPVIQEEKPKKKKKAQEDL

[3] = target: T3, SmERp60 (Schistosoma mansoni, UniProt P38658); test: fluorimetric di-eosin-GSSG disulfide reductase assay, […] protein; type: biochemical
T3 construct: recombinant, GST tag cleaved
T3 sequence (P38658 15-484): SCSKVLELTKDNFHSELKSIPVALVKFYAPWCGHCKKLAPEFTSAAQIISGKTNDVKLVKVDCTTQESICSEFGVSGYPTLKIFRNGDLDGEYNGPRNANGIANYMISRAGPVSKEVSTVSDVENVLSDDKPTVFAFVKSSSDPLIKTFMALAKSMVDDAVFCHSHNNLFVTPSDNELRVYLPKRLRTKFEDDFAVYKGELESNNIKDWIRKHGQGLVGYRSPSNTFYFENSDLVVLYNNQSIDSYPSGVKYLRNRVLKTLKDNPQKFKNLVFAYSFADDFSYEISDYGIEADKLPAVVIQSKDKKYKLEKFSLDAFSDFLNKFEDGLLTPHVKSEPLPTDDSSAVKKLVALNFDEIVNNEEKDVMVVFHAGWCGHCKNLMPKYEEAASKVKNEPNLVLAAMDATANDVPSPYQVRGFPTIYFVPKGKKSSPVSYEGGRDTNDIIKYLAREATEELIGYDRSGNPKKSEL

T1 sequence (Q8I8E1 entry or part of it): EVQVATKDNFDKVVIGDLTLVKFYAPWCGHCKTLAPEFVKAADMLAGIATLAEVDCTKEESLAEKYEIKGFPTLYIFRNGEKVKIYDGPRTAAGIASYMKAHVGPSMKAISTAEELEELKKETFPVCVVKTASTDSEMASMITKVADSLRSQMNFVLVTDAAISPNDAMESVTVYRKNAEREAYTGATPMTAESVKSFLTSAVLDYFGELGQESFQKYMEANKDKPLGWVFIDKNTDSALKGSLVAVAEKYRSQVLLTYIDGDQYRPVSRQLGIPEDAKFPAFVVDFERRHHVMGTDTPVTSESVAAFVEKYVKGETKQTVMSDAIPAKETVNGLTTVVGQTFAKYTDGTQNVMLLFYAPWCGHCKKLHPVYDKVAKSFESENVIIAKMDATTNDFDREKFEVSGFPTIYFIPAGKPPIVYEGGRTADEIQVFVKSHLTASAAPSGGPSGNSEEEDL

Row | IC50 [3] | SMILES | IC50 [1] | IC50 [2]
1 |  | O=C1O[C@H]2[C@@H]3OC(=O)c4cc(O)c(O)c(O)c4-c4c(O)c(O)c5oc(=O)c6c(c(O)c(O)c7oc(=O)c4c5c76)-c4c(cc(O)c(O)c4O)C(=O)OC[C@H]3OC(O)[C@@H]2OC(=O)c2cc(O)c(O)c(O)c2-c2c1cc(O)c(O)c2O (mixture of isomers) [punicalagin] | 7300 nM | 500 nM
2 | 750 nM | COc1cc([C@H]2Oc3cc([C@H]4Oc5cc(O)cc(O)c5C(=O)[C@@H]4O)ccc3O[C@@H]2CO)ccc1O [silibinin A] |  | 
